The text below walks through data of PMC3360681, “Comparison of Recombinant Human Haptocorrin Expressed in Human Embryonic Kidney Cells and Native Haptocorrin” (PLoS ONE, 2012).

Test [1] addresses T1, TC (transcobalamin) (Homo sapiens, UniProt P20062).
T1 sequence (P20062 19-427): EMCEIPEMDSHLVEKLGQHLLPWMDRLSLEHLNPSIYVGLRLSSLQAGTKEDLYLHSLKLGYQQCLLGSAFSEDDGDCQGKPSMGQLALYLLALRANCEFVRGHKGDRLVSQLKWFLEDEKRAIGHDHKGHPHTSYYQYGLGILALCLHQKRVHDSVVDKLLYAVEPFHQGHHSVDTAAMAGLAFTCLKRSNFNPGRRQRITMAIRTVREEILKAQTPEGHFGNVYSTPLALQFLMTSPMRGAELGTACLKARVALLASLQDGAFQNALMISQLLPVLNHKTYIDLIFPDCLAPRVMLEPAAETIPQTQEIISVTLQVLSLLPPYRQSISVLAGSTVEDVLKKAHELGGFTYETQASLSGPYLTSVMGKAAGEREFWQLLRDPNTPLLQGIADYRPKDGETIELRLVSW
As to the kind of experiment: Concurrent binding kinetics test with CBC and Cbl. Particulars: data not shown.

Test [2] deals with native HC (native human haptocorrin). More on the design: method as in PMID 17487979. To be noted: 20°C, cited from earlier work; for k−s dissociation rate constant: pH 7.5, measured over a period of 100 h; for k+s binding rate constant: pH 7.5.
Test [3] has as its target T2, rhHC (recombinant human haptocorrin) (Homo sapiens, UniProt P20061).
T2 construct: Myc-His-tag (Myc + 6xHis, from pcDNA4/myc-His A) (C, cleaved yes); made in house
T2 sequence (P20061 24-433): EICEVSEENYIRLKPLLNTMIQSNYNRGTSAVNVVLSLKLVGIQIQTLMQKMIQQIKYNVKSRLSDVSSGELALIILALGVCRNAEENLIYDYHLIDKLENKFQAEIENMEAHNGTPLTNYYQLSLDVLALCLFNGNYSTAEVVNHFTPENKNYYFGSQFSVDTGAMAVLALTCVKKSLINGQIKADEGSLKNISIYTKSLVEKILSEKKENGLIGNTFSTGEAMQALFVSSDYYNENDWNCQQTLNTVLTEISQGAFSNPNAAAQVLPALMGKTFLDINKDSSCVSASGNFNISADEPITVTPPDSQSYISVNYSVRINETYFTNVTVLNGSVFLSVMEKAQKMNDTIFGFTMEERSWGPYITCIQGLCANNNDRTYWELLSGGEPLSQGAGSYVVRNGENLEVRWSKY
As to the kind of experiment: Binding and dissociation kinetics with fluorescent Cbl-conjugate CBC (stopped-flow competition and chase experiments). To be noted: pH 7.5. How it is done: A more detailed examination of the binding kinetics was performed in a competitive assay, where the fluorescent ligand CBC [32] alone or in the mixture with a test ligand (Cbl or Cbi) reacted with rhHC over time. Attachment of CBC to Cbl-binding proteins causes increase in the quantum yield of the fluorophore, which facilitates monitoring of the protein - CBC interactions, [33]. Presence of a non-fluorescent ligand X decreases the signal, because the binding goes along two competing routes HC•CBC ← HC → HC·X (reactions behave as irreversible processes within 0.2 s). The binding and dissociation rate constants k +s and k−s, as well as the equilibrium dissociation constant KD were calculated for all ligands by computer fitting as explained elsewhere and the results are listed in Table 2. Compared to previously reported values for native HC, all current binding rate constants (k +s) were 2–3 fold lower. This difference could not be explained by possible concentration error (±10%, examined by simulations).
The dissociation kinetics was examined in chase experiments which obeyed (within the examined time scale) one of the below schemes: HC·CBC → HC → HC·X or HC·X → HC → HC·CBC (first step was rate limiting). The dissociation kinetics of the ligands CBC, Cbl and Cbi was measured after formation of the corresponding complexes with rhHC, followed by addition of external CBC (or Cbl in the case of CBC itself) (Figure 5B). The dissociation rate constants were then calculated from linear slopes (Table 2). […] It should be understood, that evaluation of rate constants below 3 · 10^−6 s^−1 within the examined time scale cannot be precise, and that the records were used for comparison of different ligands rather than for precise quantification of k −s.
[…] The binding kinetics was monitored by means of stopped flow method (DX.17 MV stopped-flow spectro-fluorometer, Applied Biophysics, UK) using the fluorescent response from a Cbl-conjugate CBC [32], [33], excitation 525 nm, emission >550 nm, slit 1.5 mm, voltage 390, bandpass of 18.6 nm, light path of 1 cm. […] The relevant rate constants of association were calculated by computer fitting, as described elsewhere, [33].
The dissociation reactions were monitored on fluorometer Varian Eclipse (Varian, Australia) using the fluorescent response of CBC, excitation 525 nm (slit 5 nm), emission 550 nm (slit 5 nm), photomultiplier 600 V. In one setup the pre-formed rhHC·CBC complex (1 µM, 2 min) was mixed with free Cbl (1 µM), and decrease in fluorescence was registered due to rhHC·CBC ↔ Cbl exchange. Dissociation of the non-fluorescent ligands (Cbl or Cbi) was measured in similar chase experiments. […] The endogenous ligand dissociated from the protein (rate limiting step), whereupon CBC immediately bound to rhHC and increased fluorescence.

Test [4] concerns the target IF (intrinsic factor) (Homo sapiens, UniProt P27352). As to the kind of experiment: Concurrent binding kinetics test with CBC and Cbl. To be noted: data not shown.
In test [5] the test system is HepG2 cells expressing the asialoglycoprotein receptor. As to the kind of experiment: Internalisation of 125I-labelled proteins into HepG2 cells. Format: cell-based. Particulars: 125I-labelled protein. The text has this:
Depending on the source of expression, different isoforms of HC exist in human blood and extracellular fluids. […] We tested whether ^125I-labelled rhHC would be readily taken up by HepG2 cells expressing the asialoglycoprotein receptor involved in HC clearance. […] Only after removal of terminal sialic acid by neuraminidase, rhHC and native HC were internalised. Removal of the terminal sialic acid residues was qualitatively determined by SDS/PAGE (Figure 6A).
The proteins were labelled with ^125I using the Iodogen method (Pierce). Labelled protein was purified on a PD10 column (GE healthcare, Glattbrugg, Switzerland). HEPG2 cells were incubated in twelve-well plates in triplicates with about 1 µg of labelled protein for 1 h at 4°C. The plates were then incubated for 0, 1.5, 3, 6 h at 37°C for internalisation. After these times, the cells were washed twice with PBS/0.1% bovine serum albumin and then incubated for 5 min with ice-cold acid wash buffer (50 mM Glycine-HCl, 100 mM NaCl, pH 2.8) to remove the cell-surface bound radioligand. Subsequently, cells were solubilised by incubation with 1 N NaOH for 5 min. at 37°C. At each time point the radioactivity in the cell medium (released), the acid wash (cell-surface bound) and the solubilised cells (internalised) were determined with a NaI-γ-counter (Cobra II Packard, Canberra Packard GmbH, Frankfurt, Germany).

Test [6] is described as follows: Active protein fraction (AP) from absorbance ratio A280/A356 after saturation with aquo-Cbl. Format: binding. From the text:
The spectral features of the complex rhHC•aquo-Cbl were explored further when rhHC was saturated with aquo-Cbl added in steps at concentrations below the total binding capacity of the protein (Figure 3B). This allowed calculation of the molar absorbance coefficients of aquo-Cbl when bound to rhHC (Table 1). These parameters helped to evaluate the active protein fraction (AP) as previously shown for IF [27]. For rhHC the value of AP was found from the ratio of R = A280/A356 according to the equation below and the values of absorbance coefficients from Table 1. [drawing 1]
Prior to AP measurements, rhHC was saturated with an excess of aquo-Cbl, free aquo-Cbl was bound to the specific tetrazole adsorbent, whereupon the spectrum of rhHC·Cbl was recorded and compared to the control sample (buffer + aquo-Cbl + adsorbent). After subtraction of the control spectrum, the absorbance ratio and AP were calculated.
rhHC (10 µM) was saturated with an excess of CNCbl (20 µM) and subjected to dialysis against a 50-fold volume excess of 5 M GdnHCl (30°C, 180 rpm). The solution was changed at days 2 and 3. Incubation was stopped after day 4, whereupon rhHC was renatured by dialysis against 0.2 M Na-phosphate buffer pH 7.5, see also ref. [31].

Where [7] appears, read: rhHC preparation with active protein fraction 0.95.
The mark [8] stands for this setting: after removal of terminal sialic acid by neuraminidase.
[9] abbreviates: without neuraminidase treatment, time span of 6 h.

Chain of IF (intrinsic factor) (P27352 19-417, species assumed): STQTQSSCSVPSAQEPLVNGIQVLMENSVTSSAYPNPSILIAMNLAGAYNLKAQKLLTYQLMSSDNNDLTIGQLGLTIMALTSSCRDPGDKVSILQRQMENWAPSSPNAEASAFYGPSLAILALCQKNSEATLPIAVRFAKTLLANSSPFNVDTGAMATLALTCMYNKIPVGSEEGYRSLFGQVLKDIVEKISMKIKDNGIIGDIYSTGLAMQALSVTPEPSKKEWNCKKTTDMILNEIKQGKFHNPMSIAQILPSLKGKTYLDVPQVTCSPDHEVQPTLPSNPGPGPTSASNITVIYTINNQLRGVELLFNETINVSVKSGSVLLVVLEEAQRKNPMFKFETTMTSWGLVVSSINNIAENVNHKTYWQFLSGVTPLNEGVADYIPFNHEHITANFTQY

With `C/C1=C2/[N-][C@H]([C@H](CC(N)=O)[C@@]2(C)CCC(=O)NC[C@@H](C)OP(=O)([O-])O[C@H]2[C@@H](O)[C@@H](n3cnc4cc(C)c(C)cc43)O[C@@H]2CO)[C@]2(C)N=C(/C(C)=C3N=C(/C=C4N=C1[C@@H](CCC(N)=O)C\4(C)C)[C@@H](CCC(N)=O)[C@]\3(C)CC(N)=O)[C@@H](CCC(N)=O)[C@]2(C)CC(N)=O.[Co]` [Cbl, cobalamin], the “k+s binding rate constant” value in test [1] is 60–70 · 10^6 M^−1 s^−1; in test [2], 9e+07 M⁻¹ s⁻¹; in test [3] (setting [7]) it was “X/19/X· 10^6 10^6 M^−1s^−1”; in test [4], 60–70 · 10^6 M^−1 s^−1. For the same molecule, the results for the “k−s dissociation rate constant” value in test [2] and in test [3] (setting [7]) were “≈5 · 10^−7 s^−1” and “X/≤3/X· 10^−6 10^−6 s^−1”, respectively.
Consider `CC1=C2[N-][C@H]([C@H](CC(N)=O)[C@@]2(C)CCC(=O)NC[C@@H](C)O)[C@]2(C)N=C(C(C)=C3N=C(C=C4N=C1[C@@H](CCC(N)=O)C4(C)C)[C@@H](CCC(N)=O)[C@]3(C)CC(N)=O)[C@@H](CCC(N)=O)[C@]2(C)CC(N)=O.[Co+2]` [Cbi, cobinamide], for which the “k−s dissociation rate constant” value in test [2] is listed as “≈5 · 10^−7 s^−1”. Further, the “k+s binding rate constant” value in test [2] was 7.3e+07 M⁻¹ s⁻¹; in test [3] (setting [7]), 21 10^6 M^−1s^−1; in test [3] (rhHC preparation with active protein fraction 0.99) it was 33 10^6 M^−1s^−1.

B1: native HC: native human haptocorrin purified from plasma of a patient with hepatocellular carcinoma (protein)
chain: EICEVSEENYIRLKPLLNTMIQSNYNRGTSAVNVVLSLKLVGIQIQTLMQKMIQQIKYNVKSRLSDVSSGELALIILALGVCRNAEENLIYDYHLIDKLENKFQAEIENMEAHNGTPLTNYYQLSLDVLALCLFNGNYSTAEVVNHFTPENKNYYFGSQFSVDTGAMAVLALTCVKKSLINGQIKADEGSLKNISIYTKSLVEKILSEKKENGLIGNTFSTGEAMQALFVSSDYYNENDWNCQQTLNTVLTEISQGAFSNPNAAAQVLPALMGKTFLDINKDSSCVSASGNFNISADEPITVTPPDSQSYISVNYSVRINETYFTNVTVLNGSVFLSVMEKAQKMNDTIFGFTMEERSWGPYITCIQGLCANNNDRTYWELLSGGEPLSQGAGSYVVRNGENLEVRWSKY
modifications: 125I label (Iodogen method); glycosylated
notes: native human haptocorrin purified from plasma of a patient with hepatocellular carcinoma
B1: the “Internalisation into HepG2 cells” value in test [5] (setting [8]) is on record as “internalised”; in test [5] (setting [9]) it was “not internalised”.

B2: rhHC: recombinant human haptocorrin expressed in HEK293 cells, tag removed, four excessive C-terminal residues (…LVPR) (protein)
chain: EICEVSEENYIRLKPLLNTMIQSNYNRGTSAVNVVLSLKLVGIQIQTLMQKMIQQIKYNVKSRLSDVSSGELALIILALGVCRNAEENLIYDYHLIDKLENKFQAEIENMEAHNGTPLTNYYQLSLDVLALCLFNGNYSTAEVVNHFTPENKNYYFGSQFSVDTGAMAVLALTCVKKSLINGQIKADEGSLKNISIYTKSLVEKILSEKKENGLIGNTFSTGEAMQALFVSSDYYNENDWNCQQTLNTVLTEISQGAFSNPNAAAQVLPALMGKTFLDINKDSSCVSASGNFNISADEPITVTPPDSQSYISVNYSVRINETYFTNVTVLNGSVFLSVMEKAQKMNDTIFGFTMEERSWGPYITCIQGLCANNNDRTYWELLSGGEPLSQGAGSYVVRNGENLEVRWSKYLVPR
modifications: 125I label (Iodogen method); glycosylated, highly sialylated; left off: Myc, C-terminal, cleaved | His6, C-terminal, cleaved
For the molecule B2, the “AP active protein fraction after renaturing” value in test [6] (apo-rhHC after Cbl saturation, GdnHCl dialysis and renaturing, preparation with AP = 0.95 before treatment) is 0.95. In addition, the Cbl binding capacity in test [6] (rhHC) is listed as 95–99%. Moreover, the “Internalisation into HepG2 cells” value in test [5] (setting [8]) is given as “internalised”; in test [5] (setting [9]), “not internalised”.
